Measurements taken from US20230331803A1, “CO-AGONISTS OF THE GLP-1 AND AMYLIN RECEPTORS” (priority 2020, published 2023).
pEC50: −log10 of the molar value. Read-outs that look alike come from different tables or passages of the source. Starred links: 1 amine or outer side, 2 acyl side, 3 side chain; linkers in the order of their positions; H or OH if unused. Non-standard residues stand in square brackets, D forms with d. Groups on a side chain read outwards from the residue. *: point of attachment. X1 = O=C(O)CCCCCCCCCCCCCCC(=O)N[C@@H](CCC(=O)NCCOCCOCC(=O)NCCOCCOCC(=O)NCCCC[C@H](NC(=O)COCCOCCNC(=O)COCCOCCNC(=O)CC[C@H](NC(=O)CCCCCCCCCCCCCCC(=O)O)C(=O)O)C(=O)*)C(=O)O; Undecanoyl(11-OPh(4-COOH)) = O=C(O)c1ccc(OCCCCCCCCCCC(=O)*)cc1; C20 diacid = O=C(O)CCCCCCCCCCCCCCCCCCC(=O)*; C18 diacid = O=C(O)CCCCCCCCCCCCCCCCC(=O)*; C16 diacid = O=C(O)CCCCCCCCCCCCCCC(=O)*; γGlu = O=C(O)[C@H](CCC(=O)[*:2])N[*:1]; C14 diacid = O=C(O)CCCCCCCCCCCCC(=O)*; Desaminohistidyl = O=C(CCc1c[nH]cn1)*; εLys = N[C@@H](CCCCN[*:1])C(=O)[*:2]; Trx = NC[C@H]1CC[C@H](C(=O)O)CC1; AEEA = NCCOCCOCC(=O)O; Aib = CC(C)(N)C(=O)O

Legend:
human GLP-1 receptor = biological target: T1, human GLP-1 receptor (Homo sapiens, UniProt P43220); assay: Human GLP-1 receptor in vitro potency assay (CRE-luciferase reporter, BHK cells); type: cell-based
T1 construct: expressed in transfected cells; host or cells: BHK (Baby Hamster Kidney) cells, clone BHK 467-12A KZ-10, stably transfected, with CRE-luciferase reporter
Method: It is thus possible to measure GLP-1 receptor activity using a CRE-luciferase reporter gene introduced into Baby Hamster Kidney (BHK) cells co-expressing the GLP-1 receptor.
Cells were aliquoted and stored at -180° C. until use.
Plates were sealed and incubated at room temperature with gentle shaking for 30 minutes while protected from light. Luminescence was detected on a luminescence plate reader e.g. a Synergy 2 (BioTek).

[1] = biological target: T2, human amylin receptor (hAmyR3) (Homo sapiens, UniProt O60896+P30988); assay: Human amylin receptor in vitro potency assay (CRE-luciferase reporter, BHK cells); type: cell-based; conditions: for EC50: read-out: Human AmyR3 potency [EC50 (pM)]; for Ability to agonise the amylin receptor, in words: Tables 4a-4c;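 on all read-outs here: BHK cells expressing human calcitonin receptor plus RAMP3 (amylin-3 receptor) with a CRE-luciferase reporter, agonist activity read as luminescence from cAMP-driven transcription, 7-point serial dilutions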
T2 construct: host or cells: BHK cells (Hollex-1 line: human calcitonin receptor (a) + CRE-Luc), further transfected with human RAMP3

[2] = Table 4a, BHK cells expressing human GLP-1R, CRE-Luc, 3 hours, read-out: Human GLP-1R potency [EC50 (pM)]
[3] = Table 4a, BHK hAmyR3/CRE-Luc cells, 3 hours

T2 sequence (P30988 25-474): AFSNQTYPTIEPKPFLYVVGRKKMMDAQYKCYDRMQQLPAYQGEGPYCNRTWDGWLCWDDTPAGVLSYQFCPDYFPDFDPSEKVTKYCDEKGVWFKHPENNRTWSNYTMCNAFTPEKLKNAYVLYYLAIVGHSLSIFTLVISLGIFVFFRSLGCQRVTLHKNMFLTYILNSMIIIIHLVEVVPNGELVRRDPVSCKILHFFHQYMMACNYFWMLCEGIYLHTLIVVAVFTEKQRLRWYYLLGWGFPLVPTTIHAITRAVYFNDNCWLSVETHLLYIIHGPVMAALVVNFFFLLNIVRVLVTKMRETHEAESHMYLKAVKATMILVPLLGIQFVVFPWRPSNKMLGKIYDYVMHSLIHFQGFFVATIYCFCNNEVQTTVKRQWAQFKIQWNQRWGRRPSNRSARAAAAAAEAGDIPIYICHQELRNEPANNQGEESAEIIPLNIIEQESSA
T2 sequence (O60896 24-148): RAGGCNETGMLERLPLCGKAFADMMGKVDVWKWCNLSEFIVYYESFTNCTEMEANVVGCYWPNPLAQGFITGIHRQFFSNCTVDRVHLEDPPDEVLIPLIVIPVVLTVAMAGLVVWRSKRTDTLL
T1 sequence (P43220 24-463): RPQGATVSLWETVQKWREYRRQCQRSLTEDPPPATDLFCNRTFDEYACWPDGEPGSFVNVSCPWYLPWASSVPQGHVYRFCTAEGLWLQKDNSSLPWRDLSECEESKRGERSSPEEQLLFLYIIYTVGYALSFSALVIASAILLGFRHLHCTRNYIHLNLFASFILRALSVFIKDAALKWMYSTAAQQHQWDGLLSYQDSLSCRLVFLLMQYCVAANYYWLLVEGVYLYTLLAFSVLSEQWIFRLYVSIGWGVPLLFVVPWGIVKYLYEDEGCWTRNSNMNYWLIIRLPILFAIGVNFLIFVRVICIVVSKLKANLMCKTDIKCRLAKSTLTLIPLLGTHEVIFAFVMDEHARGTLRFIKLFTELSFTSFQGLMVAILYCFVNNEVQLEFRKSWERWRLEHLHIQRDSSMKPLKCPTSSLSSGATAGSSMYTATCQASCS

With “Desaminohistidyl-AEGTFTSDVSSYLEEQAAREFIAWLVRGRK([AEEA-AEEA-γGlu-C18 diacid])EASELSTAALGRLSAELHELATLPRTETGSGSP-NH2 [Compound 0051]” the EC50 (human GLP-1 receptor; [2]) was 14.3 pM and the EC50 [1, 3] was 19.5 pM.

In the case of “Desaminohistidyl-[Aib]EGTFTSDVSSYLEEQAAREFIAWLVRGRK([γGlu-C20 diacid])EASELSTAALGRLSAELHELATLPRTETGSGSP-NH2 [Compound 0142]”, the EC50 (human GLP-1 receptor; [2]) was 88.2 pM and the EC50 [1, 3] was 15.4 pM.

“H-Aib-EGTFTSDVSSYLEEQAAREFIAWLVRGR-K([2-[2-[2-[[2-[2-[2-[[(4S)-4-Carboxy-4-(17-Carboxyheptadecanoylamino)Butanoyl]Amino]Ethoxy]Ethoxy]Acetyl]Amino]Ethoxy]Ethoxy]Acetyl])-GGGGEKCNTATCATQRLAEFLRHSSNNFGPILPPTNVGSNTP-amide [Comparator compound 0672, reference compound]” was tested, and the “Ability to agonise the GLP-1 receptor, in words” value (human GLP-1 receptor; Tables 4a-4c) was “retained their potencies on the GLP-1 receptor”, the EC50 (human GLP-1 receptor; read-out: Human GLP-1 R potency [EC50 (pM)], Table 4b, reference and comparator compounds) was 2.2 pM and the EC50 ([1]; Table 4b, reference and comparator compounds) was 606 pM. The “Ability to agonise the amylin receptor, in words” value [1] was “impaired potency on the amylin receptor”.

With “H-Aib-EGTFTSDVSSYLEGQAA-K([2-[2-[2-[[2-[2-[2-[[(4S)-4-Carboxy-4-(17-Carboxyheptadecanoylamino)Butanoyl]Amino]Ethoxy]Ethoxy]Acetyl]Amino]Ethoxy]Ethoxy]Acetyl])-EFIAWLVRGRGGQEPGQEPCNTATCATQRLAEFLRHSSNNFGPILPPTNVGSNTP-amide [Comparator compound 0015, reference compound]” the EC50 (human GLP-1 receptor; read-out: Human GLP-1 R potency [EC50 (pM)], Table 4c, further comparator compounds) was 45 pM, the EC50 ([1]; Table 4c, further comparator compounds) was 312 pM and the “Ability to agonise the amylin receptor, in words” value [1] was “poor agonist of the amylin receptor”.

“H-HAEGTFTSDK([AEEA-AEEA-γGlu-C16 diacid])SSYLEEK([AEEA-AEEA-γGlu-C16 diacid])AAREFIEWLVRGRGEASELSTAALGRLSAELHELATLPRTETGSGSP-NH2 [Compound 0475]” showed an EC50 (human GLP-1 receptor; [2]) of 70.4 pM and an EC50 [1, 3] of 66.8 pM.

“H-HAEGTFTSDVSK([AEEA-AEEA-γGlu-C16 diacid])YLEEQAVREFIAK([AEEA-AEEA-γGlu-C16 diacid])LVRGRGGGEASELSTAALGRLSAELHELATLPRTETGSGSP-NH2 [Compound 0482]” showed an EC50 (human GLP-1 receptor; [2]) of 36.5 pM and an EC50 [1, 3] of 31.8 pM.

In the case of “H-HAEGTFTSDVSSYLEEK([AEEA-AEEA-γGlu-C20 diacid])AAREFIEWLVRGRGEASELSTAALGRLSAELHELATLPRTETGSGSP-NH2 [Compound 0474]”, the EC50 (human GLP-1 receptor; [2]) was 2.9 pM and the EC50 [1, 3] was 21.8 pM.

With “H-HAEGTFTSDVSSYLEEK([AEEA-AEEA-γGlu-Trx-C20 diacid])AAREFIEWLVRGRGEASELSTAALGRLSAELHELATLPRTETGSGSP-NH2 [Compound 0414]” the EC50 (human GLP-1 receptor; [2]) was 11.2 pM and the EC50 [1, 3] was 17.7 pM.

In the case of “H-HGEGTFTSDVSSYLEEQAARK([AEEA-AEEA-γGlu-C14 diacid])FIEWLVRGK([AEEA-AEEA-γGlu-C14 diacid])GEASELSTAALGRLSAELHELATLPRTETGSGSP-NH2 [Compound 0039]”, the EC50 (human GLP-1 receptor; [2]) was 34.8 pM and the EC50 [1, 3] was 59.5 pM.

With “H-HGEGTFTSDVSSYLEEQAARK([AEEA-AEEA-γGlu-C16 diacid])FIEWLVRGK([AEEA-AEEA-γGlu-C16 diacid])GEGGEASELSTAALGRLSAELHELATLPRTETGSGSP-NH2 [Compound 0087]” the EC50 (human GLP-1 receptor; [2]) was 23.8 pM and the EC50 [1, 3] was 97.9 pM.

“H-HGEGTFTSDVSSYLEEQAARK([AEEA-AEEA-γGlu-C18 diacid])FIEWLVRGK([AEEA-AEEA-γGlu-C18 diacid])GEGGEASELSTAALGRLSAELHELATLPRTETGSGSP-NH2 [Compound 0090]” was tested, and the EC50 (human GLP-1 receptor; [2]) was 32.6 pM and the EC50 [1, 3] was 70.9 pM.

“H-HWEGTFTSDVSSYLEEQAARK([AEEA-AEEA-γGlu-Undecanoyl(11-OPh(4-COOH))])FIEWLVRGRGEGGGGGASELSTAALGRLSK([AEEA-AEEA-γGlu-Undecanoyl(11-OPh(4-COOH))])ELHELATLPRTETGSGSP-NH2 [Compound 0255]” showed a pEC50 (human GLP-1 receptor) of 11.60 and a pEC50 [1] of 10.54.

In the case of “H-HWEGTFTSDVSSYLEEQAARK([εLys-AEEA-AEEA-γGlu-Trx-C20 diacid])FIEWLVRGRGEASELSTAALGRLSAELHELATLPRTETGSGSP-NH2 [Compound 0437]”, the EC50 (human GLP-1 receptor; [2]) was 12 pM and the EC50 [1, 3] was 11.8 pM.

“H-H[Aib]EGTFTSDK([AEEA-AEEA-γGlu-C16 diacid])SSYLEEQAAREFIAWLVRGRGGGGGEASELSTAALGRLSAELHELATLK([AEEA-AEEA-γGlu-C16 diacid])RTETGSGSP-NH2 [Compound 0261]” was tested, and the EC50 (human GLP-1 receptor; [2]) was 17.4 pM and the EC50 [1, 3] was 23.9 pM.

“H-H[Aib]EGTFTSDK([AEEA-AEEA-γGlu-C16 diacid])SSYLEEQAAREFIAWLVRGRGGGGGEASELSTAALGRLSAELHELK([AEEA-AEEA-γGlu-C16 diacid])TLPRTETGSGSP-NH2 [Compound 0260]” gave an EC50 (human GLP-1 receptor; [2]) of 11.9 pM and an EC50 [1, 3] of 41.8 pM.

Substance “H-H[Aib]EGTFTSDVSK([AEEA-AEEA-γGlu-C14 diacid])YLEEQAVREFIAK([AEEA-AEEA-γGlu-C14 diacid])LVRGRGGGEASELSTAALGRLSAELHELATLPRTETGSGSP-NH2 [Compound 0484]” has an EC50 (human GLP-1 receptor; [2]) of 72.8 pM and an EC50 [1, 3] of 32.5 pM.

With “H-H[Aib]EGTFTSDVSK([AEEA-AEEA-γGlu-C16 diacid])YLEEQAARK([AEEA-AEEA-γGlu-C16 diacid])FIEWLVRGAAEASELSTAALGRLSAELHELATLPRTETGSGSP-NH2 [Compound 0629]” the EC50 (human GLP-1 receptor; [2]) was 7.9 pM and the EC50 [1, 3] was 97.5 pM.

“H-H[Aib]EGTFTSDVSK([AEEA-AEEA-γGlu-C16 diacid])YLEEQAVREFIAK([AEEA-AEEA-γGlu-C16 diacid])LVRGRGGGEASELSTAALGRLSAELHELATLPRTETGSGSP-NH2 [Compound 0483]” showed an EC50 (human GLP-1 receptor; [2]) of 33.7 pM and an EC50 [1, 3] of 36.8 pM.

In the case of “H-H[Aib]EGTFTSDVSK([AEEA-X1])YLEEQAAREFIAWLVRGRGGGGGEASELSTAALGRLSAELHELATLPRTETGSGSP-NH2 [Compound 0564]”, the EC50 (human GLP-1 receptor; [2]) was 24.5 pM and the EC50 [1, 3] was 14.5 pM.

“H-H[Aib]EGTFTSDVSK([γGlu-γGlu-γGlu-γGlu-C16 diacid])YLEEQAARK([γGlu-γGlu-γGlu-γGlu-C16 diacid])FIAWLVRGRGEASELSTAALGRLSAELHELATLPRTETGSGSP-NH2 [Compound 0634]” showed an EC50 (human GLP-1 receptor; [2]) of 14.7 pM and an EC50 [1, 3] of 59.4 pM.

In the case of “H-H[Aib]EGTFTSDVSK([γGlu-γGlu-γGlu-γGlu-C20 diacid])YLEEQAAREFIEWLVRGAAEASELSTAALGRLSAELHELATLPRTETGSGSP-NH2 [Compound 0632]”, the EC50 (human GLP-1 receptor; [2]) was 18.8 pM and the EC50 [1, 3] was 148 pM.

Substance “H-H[Aib]EGTFTSDVSSYLEEK([AEEA-AEEA-γGlu-C16 diacid])AAREFIAWLVRGRGGGGGASELSTAALGRLSK([AEEA-AEEA-γGlu-C16 diacid])ELHELATLPRTETGSGSP-NH2 [Compound 0295]” has an EC50 (human GLP-1 receptor; [2]) of 4.8 pM and an EC50 [1, 3] of 32.7 pM.

“H-H[Aib]EGTFTSDVSSYLEEK([AEEA-AEEA-γGlu-C16 diacid])AAREFIAWLVRGRGGGGGEASELSTAALGRLSAELHELATLK([AEEA-AEEA-γGlu-C16 diacid])RTETGSGSP-NH2 [Compound 0397]” showed an EC50 (human GLP-1 receptor; [2]) of 3.8 pM and an EC50 [1, 3] of 18.5 pM.

In the case of “H-H[Aib]EGTFTSDVSSYLEEK([AEEA-AEEA-γGlu-C16 diacid])AAREFIAWLVRGRGGGGGEASELSTAALGRLSAELHELK([AEEA-AEEA-γGlu-C16 diacid])TLPRTETGSGSP-NH2 [Compound 0396]”, the EC50 (human GLP-1 receptor; [2]) was 4.8 pM and the EC50 [1, 3] was 32.8 pM.

Substance “H-H[Aib]EGTFTSDVSSYLEEK([AEEA-AEEA-γGlu-C16 diacid])AAREFIAWLVRGRGGGGGEASELSTAALGRLSAELHK([AEEA-AEEA-γGlu-C16 diacid])LATLPRTETGSGSP-NH2 [Compound 0299]” has an EC50 (human GLP-1 receptor; [2]) of 6 pM and an EC50 [1, 3] of 11.5 pM.

“H-H[Aib]EGTFTSDVSSYLEEQAAREFIAWLVK([AEEA-AEEA-γGlu-C18 diacid])GRGGGGGEASELSTAALGRLSAELHELATLPRTETGSGSP-NH2 [Compound 0144]” was tested, and the EC50 (human GLP-1 receptor; [2]) was 7.1 pM and the EC50 [1, 3] was 16.8 pM.
